Bridge positions count the residues as written; N and C are the ends. Square brackets hold non-standard residues; d marks the D form. Peptide text beside a SMILES is read from it. I, II: the chains in the order shown. Phe(3,4-Cl2) = N[C@@H](Cc1ccc(Cl)c(Cl)c1)C(=O)O; tBuAla = CC(C)(C)C[C@H](N)C(=O)O; hLeu = CC(C)CC[C@H](N)C(=O)O; Nle = CCCC[C@H](N)C(=O)O
Biological target: Frizzled-7 (Homo sapiens, UniProt O75084)
Experiment: Binding affinity to recombinant human Frizzled-7 (Gln33 to Leu185 residues)/human IgG1 chimeric protein expressed in CHO cells assessed as […] by SPR assay

Row | Compound | Kd
1 | CSCC[C@H](NC(=O)[C@@H](CC1CCC1)NC(=O)[C@H](Cc1cnc[nH]1)NC(=O)[C@H](CSSC[C@H](NC(=O)[C@H](Cc1c[nH]c2ccccc12)NC(=O)[C@H](Cc1ccccc1)NC(=O)[C@H](CCC(=O)O)NC(=O)[C@H](CC(C)C)NC(=O)[C@H](CC(=O)O)NC(=O)[C@H](CC(=O)O)NC(=O)[C@H](CO)NC(C)=O)C(=O)N[C@@H](Cc1cnc[nH]1)C(=O)N[C@H](CC1CCC1)C(=O)N[C@@H](CCSC)C(=O)N[C@@H](Cc1ccc(O)cc1)C(N)=O)NC(=O)[C@H](Cc1c[nH]c2ccccc12)NC(=O)[C@H](Cc1ccccc1)NC(=O)[C@H](CCC(=O)O)NC(=O)[C@H](CC(C)C)NC(=O)[C@H](CC(=O)O)NC(=O)[C@H](CC(=O)O)NC(=O)[C@H](CO)NC(C)=O)C(=O)N[C@@H](Cc1ccc(O)cc1)C(N)=O | 2.1 nM
2 | CC[C@H](C)[C@H](NC(=O)[C@H](Cc1cnc[nH]1)NC(=O)[C@H](CSSCC[C@H](NC(=O)[C@H](Cc1c[nH]c2ccccc12)NC(=O)[C@H](CC(C)C)NC(=O)[C@H](CCC(=O)O)NC(=O)[C@H](CC(C)C)NC(=O)[C@H](CC(=O)O)NC(=O)[C@H](CC(=O)O)NC(=O)[C@@H](NC(C)=O)[C@@H](C)O)C(=O)N[C@@H](Cc1cnc[nH]1)C(=O)N[C@H](C(=O)N[C@@H](CCSC)C(=O)N[C@@H](Cc1ccc(O)cc1)C(N)=O)[C@@H](C)CC)NC(=O)[C@H](Cc1c[nH]c2ccccc12)NC(=O)[C@H](CC(C)C)NC(=O)[C@H](CCC(=O)O)NC(=O)[C@H](CC(C)C)NC(=O)[C@H](CC(=O)O)NC(=O)[C@H](CC(=O)O)NC(=O)[C@@H](NC(C)=O)[C@H](C)O)C(=O)N[C@@H](CCSC)C(=O)N[C@@H](Cc1ccc(O)cc1)C(N)=O | 6.3 nM
3 | CC[C@H](C)[C@H](NC(=O)[C@H](Cc1cnc[nH]1)NC(=O)[C@H](CSSC[C@H](NC(=O)[C@H](Cc1c[nH]c2ccccc12)NC(=O)[C@H](Cc1ccccc1)NC(=O)[C@H](CCC(=O)O)NC(=O)[C@H](CC(C)C)NC(=O)[C@H](CC(=O)O)NC(=O)[C@H](CC(=O)O)NC(=O)[C@H](CO)NC(C)=O)C(=O)N[C@@H](Cc1cnc[nH]1)C(=O)N[C@H](C(=O)N[C@@H](CCSC)C(=O)N[C@@H](Cc1ccc(O)cc1)C(N)=O)[C@@H](C)CC)NC(=O)[C@H](Cc1c[nH]c2ccccc12)NC(=O)[C@H](Cc1ccccc1)NC(=O)[C@H](CCC(=O)O)NC(=O)[C@H](CC(C)C)NC(=O)[C@H](CC(=O)O)NC(=O)[C@H](CC(=O)O)NC(=O)[C@H](CO)NC(C)=O)C(=O)N[C@@H](CCSC)C(=O)N[C@@H](Cc1ccc(O)cc1)C(N)=O (I: Ac-SDDLEFWCHIMY-NH2 / II: Ac-SDDLEFWCHIMY-NH2; disulfide I:8-II:8) | 0.96 nM
4 | CSCC[C@H](NC(=O)[C@@H](NC(=O)[C@H](Cc1cnc[nH]1)NC(=O)[C@H](CSSC[C@H](NC(=O)[C@H](Cc1c[nH]c2ccccc12)NC(=O)[C@H](Cc1ccccc1)NC(=O)[C@H](CCC(=O)O)NC(=O)[C@H](CC(C)C)NC(=O)[C@H](CC(=O)O)NC(=O)[C@H](CC(=O)O)NC(=O)[C@H](CO)NC(C)=O)C(=O)N[C@@H](Cc1cnc[nH]1)C(=O)N[C@H](C(=O)N[C@@H](CCSC)C(=O)N[C@@H](Cc1ccc(Cl)c(Cl)c1)C(N)=O)C(C)C)NC(=O)[C@H](Cc1c[nH]c2ccccc12)NC(=O)[C@H](Cc1ccccc1)NC(=O)[C@H](CCC(=O)O)NC(=O)[C@H](CC(C)C)NC(=O)[C@H](CC(=O)O)NC(=O)[C@H](CC(=O)O)NC(=O)[C@H](CO)NC(C)=O)C(C)C)C(=O)N[C@@H](Cc1ccc(Cl)c(Cl)c1)C(N)=O (I: Ac-SDDLEFWCHVM[Phe(3,4-Cl2)]-NH2 / II: Ac-SDDLEFWCHVM[Phe(3,4-Cl2)]-NH2; disulfide I:8-II:8) | 0.9 nM
5 | CCCC[C@H](NC(=O)[C@H](CC(=O)O)NC(=O)[C@H](CC(=O)O)NC(=O)[C@H](CO)NC(C)=O)C(=O)N[C@@H](CCC(=O)O)C(=O)N[C@@H](Cc1ccccc1)C(=O)N[C@@H](Cc1c[nH]c2ccccc12)C(=O)N[C@@H](CSSC[C@H](NC(=O)[C@H](Cc1c[nH]c2ccccc12)NC(=O)[C@H](Cc1ccccc1)NC(=O)[C@H](CCC(=O)O)NC(=O)[C@H](CCCC)NC(=O)[C@H](CC(=O)O)NC(=O)[C@H](CC(=O)O)NC(=O)[C@H](CO)NC(C)=O)C(=O)N[C@@H](Cc1cnc[nH]1)C(=O)N[C@H](C(=O)N[C@@H](CCSC)C(=O)N[C@@H](Cc1ccc(O)cc1)C(N)=O)C(C)C)C(=O)N[C@@H](Cc1cnc[nH]1)C(=O)N[C@H](C(=O)N[C@@H](CCSC)C(=O)N[C@@H](Cc1ccc(O)cc1)C(N)=O)C(C)C (I: Ac-SDD[Nle]EFWCHVMY-NH2 / II: Ac-SDD[Nle]EFWCHVMY-NH2; disulfide I:8-II:8) | 23 nM
6 | CSCC[C@H](NC(=O)[C@@H](NC(=O)[C@H](Cc1cnc[nH]1)NC(=O)[C@H](CSSC[C@H](NC(=O)[C@H](Cc1c[nH]c2ccccc12)NC(=O)[C@H](Cc1ccccc1)NC(=O)[C@H](CCC(=O)O)NC(=O)[C@H](CCC(C)C)NC(=O)[C@H](CC(=O)O)NC(=O)[C@H](CC(=O)O)NC(=O)[C@H](CO)NC(C)=O)C(=O)N[C@@H](Cc1cnc[nH]1)C(=O)N[C@H](C(=O)N[C@@H](CCSC)C(=O)N[C@@H](Cc1ccc(O)cc1)C(N)=O)C(C)C)NC(=O)[C@H](Cc1c[nH]c2ccccc12)NC(=O)[C@H](Cc1ccccc1)NC(=O)[C@H](CCC(=O)O)NC(=O)[C@H](CCC(C)C)NC(=O)[C@H](CC(=O)O)NC(=O)[C@H](CC(=O)O)NC(=O)[C@H](CO)NC(C)=O)C(C)C)C(=O)N[C@@H](Cc1ccc(O)cc1)C(N)=O (I: Ac-SDD[hLeu]EFWCHVMY-NH2 / II: Ac-SDD[hLeu]EFWCHVMY-NH2; disulfide I:8-II:8) | 124 nM
7 | CSCC[C@H](NC(=O)[C@@H](NC(=O)[C@H](Cc1cnc[nH]1)NC(=O)[C@H](CSSC[C@H](NC(=O)[C@H](Cc1c[nH]c2ccccc12)NC(=O)[C@H](Cc1ccccc1)NC(=O)[C@H](CCC(=O)O)NC(=O)[C@H](CC(C)(C)C)NC(=O)[C@H](CC(=O)O)NC(=O)[C@H](CC(=O)O)NC(=O)[C@H](CO)NC(C)=O)C(=O)N[C@@H](Cc1cnc[nH]1)C(=O)N[C@H](C(=O)N[C@@H](CCSC)C(=O)N[C@@H](Cc1ccc(O)cc1)C(N)=O)C(C)C)NC(=O)[C@H](Cc1c[nH]c2ccccc12)NC(=O)[C@H](Cc1ccccc1)NC(=O)[C@H](CCC(=O)O)NC(=O)[C@H](CC(C)(C)C)NC(=O)[C@H](CC(=O)O)NC(=O)[C@H](CC(=O)O)NC(=O)[C@H](CO)NC(C)=O)C(C)C)C(=O)N[C@@H](Cc1ccc(O)cc1)C(N)=O (I: Ac-SDD[tBuAla]EFWCHVMY-NH2 / II: Ac-SDD[tBuAla]EFWCHVMY-NH2; disulfide I:8-II:8) | 0.95 nM
